In patent US20080206203A1, “Method for Inhibiting Tumor Metastasis” (Inflammation Research Center Company Ltd., priority 2004, published 2008):
Like-named read-outs stand apart in the source and are kept apart here.

Key:
[1] = tested on: permeability of blood brain barrier and infiltration of white blood cells to cerebrospinal fluid caused by arachidonic acid; assay: arachidonic acid-induced central nervous system inflammation (CSF volume and WBC counts via subarachnoid cannula); assay type: in vivo, rat
Text: To investigate the role of leukotriene antagonists in the treatment of inflammation, a sensitive and quantitative method to measure inflammation for the central nervous system was developed. Important changes in the inflammatory process can be monitored, as both the permeability of blood brain barrier (BBB) and the infiltration of white blood cells (WBC) to cerebrospinal fluid (CSF) caused by arachidonic acid can be measured over time from the same experimental animal. In particular, the effect of the leukotriene C4 and D4 antagonist, pranlukast, was studied using this method. Changes in the inflammatory process of both the permeability of BBB and the infiltration of white blood cells (WBC) caused by administering arachidonic acid as a nociceptive stimulus were observed.
Male rats, approximately 350-400 g, were anesthetized with sodium pentobarbital at a dose of 50 mg/kg intraperitoneally (i.p.). Animals were then placed in a stereotaxic unit. Fur from the top of the head to neck was shaved. The study area was disinfected with 70% ethanol followed by a 10% providone-iodine solution. Skin and muscle over the cervical cord were dissected until cervical vertebrae were exposed. A hole was made using a 23 G3/4 needle passing through the dura via the cisterna magna. One end of a 2-3 mm PE10 cannula (0.011 “I.D., 0.007” thick, 0.024″ O.D., 6.5 cm long) was inserted into the subarachnoid space at the cervical cord so as to avoid damage to neuronal tissue (FIG. 3). The cannula was fixed with cyanoacrylic glue to the peripheral tissue. The other end of PE10 was used for administration of a nociceptive stimulus, such as arachidonic acid (AA; 3.25 μg/2 μl) and subsequently for collecting cerebrospinal fluid (CSF) every thirty minutes thereafter during the 11-hour experimental period. The cannula filled with CSF immediately after the cannulation.
Air was infused to inject AA to the subarachnoid space. The muscles and skin were closed with surgical staples. The rat was then removed from the stereotaxic unit and placed on a heat pad and continuously monitored.
In the interaction study, the leukotriene C4 and D4 antagonist, pranlukast, was administered (490 mg/kg, i.p.) thirty minutes before administration of arachidonic acid (AA). If the effects of the anesthesia appeared to be wearing off, an additional 0.05-0.1 ml pentobarbital (50 mg/ml, i.p.) dose was administered. If at any time during the experiment, the animal appeared to be in pain or distress, the study was immediately stopped and the animal was euthanized.
In the present study, the volume (μl) of cerebrospinal fluid (CSF) and white blood cell (WBC) counts in CSF was measured every thirty minutes for 11 hours from the same rat. One side of the cannula (PE10) was inserted into the subarachnoid space under pentobarbital anesthesia, avoiding neuronal damage (FIG. 3). If the brain tissue is damaged, the volume of CSF and WBC increases immediately without the administration of arachidonic acid. Since there are no WBC in the CSF in the normal rat, only rats that had no WBC in the CSF immediately after the cannulation were used. Another side of the cannula remained open and was used for the administration of nociceptive stimuli (arachidonic acid, LPS, dextran, etc.) and subsequently for collecting the CSF every thirty minutes during the experiment. The CSF volume was measured using a micropipette and WBC in the CSF were counted by means of a hemacytometer.

[2] = tested on: RCN-9, a colon cancer cell line; assay: interaction study with RCN9 cancer cells i.v.; assay type: in vivo, rat
Method: To test for inhibition of metastasis, pranlukast is administered orally (instead of intraperitoneally as was done in Example 2) before intravenous injection of the cancer cells. Arachidonic acid (AA) is then administered to the subarachnoid space two hours after pranlukast administration. The volume of CSF, white blood cell counts and cancer cell counts in the CSF are measured every 30 minutes.
Cultured human cancer cell lines, Colo 201 (colon cancer) and MKN 74 ([…]), and a cultured rat cancer cell line RCN9 were purchased from Health Science Research Resources Bank (Rinku-minamihama 2-11, Sennan-shi, Osaka, 590-0535, Japan). Human lung cancer cell line QG56 was a gift from Dr. Yukito Ichinose, Department of Laboratory Medicine, Kyusyu Cancer Center, Hukuoka, Japan. Cells were cultured at 37° C. and 5% CO2, in RPMI-1640 (SIGMA, MO, USA) supplemented with 5% fetal bovine serum, 2 mM L-glutamine (Gibco), 100 units penicillin, 100 μg/ml streptomycin (Gibco Invitrogen Corp., Grand Island, N.Y., USA).
Rats were anesthetized by sodium pentobarbital (50 mg/kg i.p.).
A femoral vein was exposed and a polyethylene tube filled with 0.002% heparin in saline was inserted. The other end of the polyethylene tube was connected to a three way cock valve for the intravenous injection of cancer cells. The animal was then placed in a stereotaxic unit (Type SRS-6 produced by Narishige Scientific Instrument Lab). Fur from the top of the head to the neck was shaved. The study area was disinfected with 70% ethanol. Skin and muscle over the cervical vertebrae were exposed. A hole was made using an 18 G×1 ½ needle passing through the dura via the cisterna magna. One end (2-3 mm) of an SP10 tube (5-6 cm long) was inserted into the subarachnoid space. The cannula was fixed with cyanoacrylic glue to the peripheral tissue. […]
The volume (μl) of CSF, WBC counts, and cancer cells counts was measured after the 3rd treatment for 8 hours.

[3] = tested on: rats; conditions: cited from earlier work
[4] = tested on: mice; conditions: cited from earlier work
[5] = 20 mg/kg p.o., cited from earlier work
[6] = in vivo; cited from earlier work
[7] = pranlukast-RCN9-arachidonic acid, 490 mg/kg p.o., rat

O=C(Nc1cccc2c(=O)cc(-c3nnn[nH]3)oc12)c1ccc(OCCCCc2ccccc2)cc1 [pranlukast]
inhibition of inflammation caused by arachidonic acid ([1]; 450 mg/kg i.p., arachidonic acid 3.25 μg/2 μl): completely inhibits | inhibition of the increase of CSF volume ([1]; 490 mg/kg i.p. thirty minutes before arachidonic acid (3.25 μg/2 μl) into the subarachnoid space, rat): completely inhibited | inhibition of the permeability of the brain capillary marked by WBC infiltration ([1]; 490 mg/kg i.p. thirty minutes before arachidonic acid, rat): completely inhibited | extravasation of tumor cells [2, 7]: significantly inhibited | increasing capillary permeability [2, 7]: significantly inhibited | effect when cancer cells present without arachidonic acid ([2]; pranlukast-RCN9-saline): did not have any effect | LD50 ([3]; p.o.): > 2000 mg/kg | LD50 ([3]; s.c.): > 2000 mg/kg | LD50 ([4]; p.o.): > 2000 mg/kg | LD50 ([4]; s.c.): > 2000 mg/kg | pranlukast in blood 24 hours after administration ([5]; 24 hours): no pranlukast was observed | time at which maximum blood concentration was attained [5]: within one hour | time the maximum blood concentration was maintained [5]: at least 5 hours | passage of the blood-brain barrier [6]: does not pass, or passes the blood-brain barrier at most at a very minimal level
